# Data taken from patent US9662322B2 (TEVA PHARMACEUTICAL INDUSTRIES, LTD., priority 2014, dated 2017).
# System: subjects with relapsing remitting multiple sclerosis (RRMS)
# Experiment: ALLEGRO Phase III trial: MRI endpoints
# Assay type: in vivo, human
# Protocol: MRI related secondary endpoints were the cumulative number of GdE lesions at months 12 and 24; and the cumulative number of new T2 lesions (relative to previous scan) at months 12 and 24; MRI exploratory endpoints included percent change of brain volume using SIENA.
# Additional MRI methodological details are as follows: In all patients, MRI scans were performed at 0, 12, and 24 months. Before a site could enroll study participants they were required to image a volunteer patient with definite MS twice with repositioning according to a strict study imaging protocol using scanners with a minimum field strength of 1.5 T. Fast/turbo spin echo (repetition time [TR]=2200-3500 ms, echo time [TE]=14-50/90-120 ms, echo train length=2-7, slice thickness=3 mm, and contiguous axial slices=44) sequences were used to obtain proton density and T2-weighted images. High resolution pre-contrast 3D T1-weighted sequences (TR=8-15 ms, TE=3-5 ms, inversion time=1.1 s, number of slices 160, slice thickness 1.2 mm, flip angle [FA]=10-15, orientation sagittal) were acquired for quantification of brain atrophy. Finally, T1-weighted images (1.5 T scanners: conventional spin echo sequence; TR=600-650 ms, TE=10-20 ms, slice thickness=3 mm, and contiguous axial slices=44; 3.0 T scanners: 3D sequence; TR=5-9 ms, TE=2-5 ms, FA=15, slice thickness=3 mm, and contiguous axial slices=44) were obtained 5 minutes after injection of 0.1 mmol/kg of gadolinium. A series of axial, coronal, and sagittal images was obtained to create an axial reference scan for subsequent careful repositioning of each patient at the follow-up session. Axial slices were positioned to run parallel to a line joining the most inferioanterior and inferioposterior parts of the corpus callosum.
# Image quality was reviewed at the MRI-AC using predetermined criteria. The identification of GdE and T2-hyperintense lesions was done by consensus of two experienced observers. The number of total and new GdE lesions and new/enlarging T2-hyperintense lesions were counted. The identified lesions were then outlined by trained technicians using a semiautomated segmentation technique based on local thresholding (Jim 4.0; Xinapse System, Leicester, UK) and lesion volumes were calculated automatically. Percentage brain volume changes and cross-sectional normalized brain volumes were measured on […] T1-weighted images, with Structural Image Evaluation of Normalized Atrophy (SIENA) software and a cross-sectional method (SIENAX) (available from the FMRIB Software Library, Oxford University, Oxford, UK; http://www.fmrib.ox.ac.uk/analysis/research/siena/siena).
# Analyses of the secondary MRI endpoints of the cumulative number of GdE and new/enlarging T2 lesions at 12 and 24 months involved a baseline-adjusted negative binomial regression with an “offset” employing the log of the relative exposure to adjust for early-terminated patients. The model included as covariates the number of enhancing lesions at baseline, and country or geographical region. In the case of new/enlarging T2 lesion analysis, the baseline T2 lesion volume was also added. The MRI secondary endpoints analyses were tested simultaneously with an overall type I error of 5%, using the Hochberg's step-up modification to Bonferroni's method to the two P-values obtained from the analyses of these two endpoints. The analysis of the brain atrophy endpoint involved a baseline-adjusted analysis of covariance (ANCOVA). The covariates were the number of GdE lesions at baseline and the country or region. The exploratory endpoints were all analyzed at a significance level of 5%.
# Secondary endpoints of the ALLEGRO trial included disease activity as measured by MRI, including counts of Gadolinium enhancing T1 lesions and new-T2 hyperintense lesions. […] Conventional MRI scans for new T1 hypointense lesions, and brain volume using SIENA were performed at baseline, 12 and 24 months. […]
smiles,measurement,setting,value
"CCN(C(=O)c1c(O)c2c(Cl)cccc2n(C)c1=O)c1ccccc1 [Laquinimod, laquinimod]","BA at month 12, Effect (reduction in brain atrophy)","baseline to 12 months, vs placebo",53% reduction
same,"Hypointense T1 volume, BL to M 24",change baseline to month 24,7%
same,Hypointense T1 volume month 0,month 0 (baseline),2.65
same,T2 volume month 0,month 0 (baseline),7.27
same,% BV change by previous medications: naïve,post-hoc,−0.82%
same,GdE lesion free M 12,post-hoc,69%
same,"% BV change M 24, GdE = 0, Effect","post-hoc, vs placebo",30% reduction
same,"% BV change M 24, GdE > 0, Effect","post-hoc, vs placebo",37% reduction
same,"% BV change by previous medications: naïve, Effect","post-hoc, vs placebo",38% reduction
same,"% BV change by previous medications: not naive, Effect","post-hoc, vs placebo",23% reduction
same,"BA for pts with all scans: Change BL to M 12, Effect","post-hoc, vs placebo",60%
same,"BA for pts with all scans: Change BL to M 24, Effect","post-hoc, vs placebo",57%
same,"Cum # T1 GdE by previous medications: naïve, Effect","post-hoc, vs placebo",42% reduction
same,"Cum # T1 GdE by previous medications: not naive, Effect","post-hoc, vs placebo",32% reduction
same,"Cum New T2 by previous medications: naïve, Effect","post-hoc, vs placebo",33% reduction
same,"Cum New T2 by previous medications: not naive, Effect","post-hoc, vs placebo",24% reduction
same,"GdE counts M 12, Effect","post-hoc, vs placebo",36% reduction
same,"GdE counts M 24, Effect","post-hoc, vs placebo",39% reduction
same,"GdE lesion free M 12, Effect","post-hoc, vs placebo",49% odds
same,"GdE lesion free M 24, Effect","post-hoc, vs placebo",72% odds
same,"GdE volume M 12, Effect","post-hoc, vs placebo",4.5%
same,"GdE volume M 24, Effect","post-hoc, vs placebo",4.7%
same,"New-T1 Hypointense Lesions M 12, Effect","post-hoc, vs placebo",27% reduction
same,"New-T1 Hypointense Lesions M 24, Effect","post-hoc, vs placebo",32% reduction
same,"T1 Hypointense Lesion free M 12, Effect","post-hoc, vs placebo",28% odds
same,"T1 Hypointense Lesion free M 24, Effect","post-hoc, vs placebo",47% odds
same,"T1 hypointense by previous medications: naïve, Effect","post-hoc, vs placebo",28% reduction
same,"T1 hypointense by previous medications: not naive, Effect","post-hoc, vs placebo",25% reduction
same,"T2 lesion free M 12, Effect","post-hoc, vs placebo",39% odds
same,"T2 lesion free M 24, Effect","post-hoc, vs placebo",40% odds
same,"Average MTR of T2 visible lesions, difference",vs placebo,0.330
same,"Cumulative new Hypointense T1 months 12 + 24, Effect",vs placebo,27% reduction
same,"Cumulative number of GdE lesions at months 12 and 24, Effect",vs placebo,37 % reduction
same,"Cumulative number of new/enlarging T2 lesions at 12 and 24 months, Effect",vs placebo,30% reduction
same,"Hypointense T1 volume month 12, Effect",vs placebo,~1%
same,"Hypointense T1 volume month 24, Effect",vs placebo,~1%
same,"T2 volume month 12, Effect",vs placebo,5%
same,"T2 volume month 24, Effect",vs placebo,5%
same,"Cumulative number of new/enlarging T2 lesions at 12 and 24 months, Effect","vs placebo, listed as laquinimod",30 % reduction
